Measured values published in US20090143279A1 (priority 2007, published 2009).
Where two headings read alike, the source gives them in different places.

Experiments:
[1] = test system: mitochondrial membrane potential; format: cell-based, mouse; conditions: for ΔΨm (composite Z-score): normalized score vs mock-treated (DMSO) wells
[2] = test system: reactive oxygen species; format: cell-based, mouse; conditions: for ROS (composite Z-score): normalized score vs mock-treated (DMSO) wells
[3] = test system: OXPHOS gene expression; format: cell-based, mouse; conditions: for GE-HTS (composite Z-score): normalized score vs mock-treated (DMSO) wells
[4] = test system: nuOXPHOS transcripts; format: cell-based, mouse; conditions: for nucOX (composite Z-score): normalized score vs mock-treated (DMSO) wells
[5] = test system: mtOXPHOS transcripts; format: cell-based, mouse; conditions: for mitoOX (composite Z-score): normalized score vs mock-treated (DMSO) wells
[6] = test system: cytochrome c; format: cell-based, mouse; conditions: for cyt c (composite Z-score): normalized score vs mock-treated (DMSO) wells
[7] = test system: C2C12 myotubes; conditions: for Viability (composite Z-score): normalized score vs mock-treated (DMSO) wells
[8] = test system: cellular dehydrogenase activity; conditions: for MTT (composite Z-score): normalized score vs mock-treated (DMSO) wells
[9] = composite Z-score vs DMSO, Conc 20 μM
[10] = normalized composite Z-score vs mock-treated (DMSO) wells, Conc 20 μM
[11] = composite Z-score vs DMSO, Conc 8.94 μM
[12] = composite Z-score vs mock-treated (DMSO) wells, Conc 20 μM
[13] = composite Z-score vs DMSO wells, Conc 20 μM

O=C(O)c1cc(O)c2c(c1)[C@H]([C@H]1c3cc(C(=O)O)cc(O)c3C(=O)c3c(O[C@@H]4O[C@H](CO)[C@@H](O)[C@H](O)[C@H]4O)cccc31)c1cccc(O[C@@H]3O[C@H](CO)[C@@H](O)[C@H](O)[C@H]3O)c1C2=O [sennoside A]
ΔΨm [1, 9]: −0.640
ROS [2, 9]: 0.137
GE-HTS [3, 9]: −1.374
nucOX [4, 9]: −1.093
mitoOX [5, 9]: −1.628
cyt c [6, 9]: 0.362
Viability [7, 9]: 0.602
MTT [8, 9]: −0.769

CC(C)=CCc1c2c(c(O)c3c(=O)c(O)c(-c4ccccc4)oc13)C=CC(C)(C)O2 [sericetin]
ΔΨm [1, 10]: 6.788
ROS [2, 10]: 0.124
GE-HTS [3, 10]: −0.890
nucOX [4, 10]: −0.670
mitoOX [5, 10]: −1.132
cyt c [6, 10]: −0.335
Viability [7, 10]: −0.783
MTT [8, 10]: −1.507

CN[C@H]1CC[C@@H](c2ccc(Cl)c(Cl)c2)c2ccccc21 [sertraline]
ΔΨm [1]: 0.420
ROS [2]: 0.090
GE-HTS [3]: −1.068
nucOX [4]: −1.476
mitoOX [5]: 0.020
cyt c [6]: −1.121
Viability [7]: 0.279
MTT [8]: −1.905

COc1cc(/C=C/C(=O)O)cc(OC)c1OC [sinapic acid methyl ether]
ΔΨm [1]: −0.716
ROS [2]: 0.722
GE-HTS [3]: −1.103
nucOX [4]: −1.058
mitoOX [5]: −1.015
cyt c [6]: 0.207
Viability [7]: −0.934
MTT [8]: −0.736

COC1=C[C@@H]2[C@@H]3Cc4ccc(OC)c(O)c4[C@]2(CCN3C)CC1=O [sinomenine]
ΔΨm [1, 9]: −0.657
ROS [2, 9]: 0.777
GE-HTS [3, 9]: −0.875
nucOX [4, 9]: −0.565
mitoOX [5, 9]: −1.253
cyt c [6, 9]: −0.117
Viability [7, 9]: −0.937
MTT [8, 9]: −1.489

CN[C@@H]1[C@@H](O)[C@@H](O[C@@H]2[C@@H](O)[C@H](O[C@H]3OC(CN)=CC[C@H]3N)[C@@H](N)C[C@H]2N)OC[C@]1(C)O [sisomicin]
ΔΨm [1, 11]: −0.962
ROS [2, 11]: 1.889
GE-HTS [3, 11]: −0.448
nucOX [4, 11]: −0.337
mitoOX [5, 11]: −0.588
cyt c [6, 11]: 0.746
Viability [7, 11]: −0.274
MTT [8, 11]: −1.515

CC[C@H](CC[C@@H](C)[C@H]1CC[C@H]2[C@@H]3CC=C4C[C@@H](OC(C)=O)CC[C@]4(C)[C@H]3CC[C@]12C)C(C)C [sitosteryl acetate]
ΔΨm [1, 10]: −0.192
ROS [2, 10]: 0.930
GE-HTS [3, 10]: −0.233
nucOX [4, 10]: −0.389
mitoOX [5, 10]: 0.180
cyt c [6, 10]: −0.443
Viability [7, 10]: −0.827
MTT [8, 10]: −0.775

O=C(O)CF [sodium fluoroacetate]
ΔΨm [1, 9]: −0.784
ROS [2, 9]: 0.613
GE-HTS [3, 9]: −0.009
nucOX [4, 9]: 0.206
mitoOX [5, 9]: −0.459
cyt c [6, 9]: 0.653
Viability [7, 9]: −0.906
MTT [8, 9]: −1.379

CC1=CC(=O)[C@H]2C(C)(C)CCC[C@]2(C)[C@@]1(O)CCc1ccoc1 [solidagenone]
ΔΨm [1, 12]: −0.242
ROS [2, 12]: 1.734
GE-HTS [3, 12]: 0.127
nucOX [4, 12]: −0.023
mitoOX [5, 12]: 0.441
cyt c [6, 12]: −0.061
Viability [7, 12]: −0.409
MTT [8, 12]: 0.084

CC(=O)N[C@@H](CC(=O)N[C@@H](CCC(=O)O)C(=O)O)C(=O)O [spaglumic acid]
ΔΨm [1, 13]: −0.685
ROS [2, 13]: 0.615
GE-HTS [3, 13]: 0.120
nucOX [4, 13]: 0.307
mitoOX [5, 13]: −0.284
cyt c [6]: 0.600
cyt c [6, 13]: 0.191
Viability [7, 13]: −0.009
MTT [8, 13]: −0.779

COc1cc2ccc(=O)oc2c2ccoc12 [sphondin]
ΔΨm [1, 12]: 0.136
ROS [2, 12]: 1.692
GE-HTS [3, 12]: −0.684
nucOX [4, 12]: −0.605
mitoOX [5, 12]: −0.666
cyt c [6, 12]: 0.091
Viability [7, 12]: −0.790
MTT [8, 12]: −0.661

CC[C@H](C=C[C@@H](C)[C@H]1CC[C@H]2[C@@H]3CCC4=CC(=O)CC[C@]4(C)[C@H]3CC[C@]12C)C(C)C [stigmasta-4,22-dien-3-one]
ΔΨm [1]: −0.299
ROS [2]: 0.550
GE-HTS [3]: −0.138
nucOX [4]: −0.094
mitoOX [5]: −0.118
cyt c [6]: 0.434
Viability [7]: 0.023
MTT [8]: −1.294

C[C@]12CC[C@H]3[C@@H](CC[C@]4(O)C[C@@H](O)CC[C@]34C=O)[C@@]1(O)CC[C@@H]2C1=CC(=O)OC1 [strophanthidin]
ΔΨm [1]: −0.175
ΔΨm [1, 13]: −1.126
ΔΨm [1, 10]: −0.481
ROS [2]: 0.947
ROS [2, 13]: 1.582
ROS [2, 10]: 1.036
GE-HTS [3]: −0.590
GE-HTS [3, 13]: −0.232
GE-HTS [3, 10]: −0.789
nucOX [4]: −0.729
nucOX [4, 13]: −0.222
nucOX [4, 10]: −0.525
mitoOX [5]: −0.190
mitoOX [5, 13]: −0.231
mitoOX [5, 10]: −1.094
cyt c [6]: 0.287
cyt c [6, 13]: 1.100
cyt c [6, 10]: 0.687
Viability [7]: −0.448
Viability [7, 13]: 0.028
Viability [7, 10]: −1.016
MTT [8]: −0.908
MTT [8, 13]: −0.828
MTT [8, 10]: −1.573

C[C@]12CC[C@H]3[C@@H](CC[C@]4(O)C[C@@H](O)CC[C@]34C(=O)O)[C@@]1(O)CC[C@@H]2C1=CC(=O)OC1 [strophanthidinic acid]
ΔΨm [1, 10]: −0.875
ROS [2, 10]: −0.059
GE-HTS [3, 10]: −0.553
nucOX [4, 10]: −0.400
mitoOX [5, 10]: −0.726
cyt c [6, 10]: 0.166
Viability [7, 10]: −0.745
MTT [8, 10]: −1.651

[H]/N=C(/N)NS(=O)(=O)c1ccc(N)cc1 [sulfaguanidine]
ΔΨm [1, 13]: 0.217
ROS [2, 13]: 0.902
GE-HTS [3, 13]: −0.571
nucOX [4, 13]: −0.522
mitoOX [5, 13]: −0.556
cyt c [6, 13]: 0.147
Viability [7, 13]: −0.691
MTT [8, 13]: −0.421

Cc1noc(NS(=O)(=O)c2ccc(N)cc2)c1C [sulfisoxazole]
ΔΨm [1, 13]: −0.543
ROS [2, 13]: −0.095
GE-HTS [3, 13]: 0.103
nucOX [4, 13]: 0.239
mitoOX [5, 13]: −0.187
cyt c [6]: 0.001
cyt c [6, 13]: 0.649
Viability [7, 13]: −1.895
MTT [8, 13]: −0.835

COC(=O)C(C)c1ccc(C(=O)c2cccs2)cc1 (stereo not shown) [suprofen methyl ester]
ΔΨm [1, 9]: 0.577
ROS [2, 9]: 0.591
GE-HTS [3, 9]: 0.139
nucOX [4, 9]: 0.216
mitoOX [5, 9]: −0.048
cyt c [6, 9]: −0.191
Viability [7, 9]: 0.611
MTT [8, 9]: −1.160

COC(=O)[C@H](O)[C@H]1C(C)(C)[C@H](OC(C)=O)[C@@H]2CC3=C4CC(=O)O[C@@H](c5ccoc5)[C@]4(C)CC[C@@H]3[C@@]1(C)C2=O [swietenolide-3-acetate]
ΔΨm [1, 12]: 1.006
ROS [2, 12]: 0.237
GE-HTS [3, 12]: −1.057
nucOX [4, 12]: −1.093
mitoOX [5, 12]: −0.838
cyt c [6, 12]: 0.668
Viability [7, 12]: −0.503
MTT [8, 12]: −0.776

O=C(O)Cc1cc(I)c(Oc2cc(I)c(O)c(I)c2)c(I)c1 [tetrac]
ΔΨm (composite Z-score) ([1]; Conc 20 μM): −1.457
ROS (composite Z-score) ([2]; Conc 20 μM): 2.718
GE-HTS (composite Z-score) ([3]; Conc 20 μM): 0.811
nucOX (composite Z-score) ([4]; Conc 20 μM): 0.714
mitoOX (composite Z-score) ([5]; Conc 20 μM): 0.898
cyt c (composite Z-score) ([6]; Conc 20 μM): 0.674
Viability (composite Z-score) ([7]; Conc 20 μM): 1.361
MTT (composite Z-score) ([8]; Conc 20 μM): −0.677

CCCCNc1ccc(C(=O)OCCN(C)C)cc1 [tetracaine]
ΔΨm [1, 13]: −0.492
ROS [2, 13]: 0.320
GE-HTS [3, 13]: −0.280
nucOX [4, 13]: −0.376
mitoOX [5, 13]: −0.034
cyt c [6]: −0.536
cyt c [6, 13]: 0.383
Viability [7, 13]: −0.539
MTT [8, 13]: −0.048

N#Cc1c(Cl)c(Cl)c(Cl)c(C#N)c1Cl [tetrachloroisophthalonitrile]
ΔΨm (composite Z-score) ([1]; Conc 20 μM): −4.269
ROS (composite Z-score) ([2]; Conc 20 μM): −3.975
GE-HTS (composite Z-score) ([3]; Conc 20 μM): −3.510
nucOX (composite Z-score) ([4]; Conc 20 μM): −3.990
mitoOX (composite Z-score) ([5]; Conc 20 μM): −1.780
cyt c (composite Z-score) ([6]; Conc 20 μM): −5.292
Viability (composite Z-score) ([7]; Conc 20 μM): −5.297
MTT (composite Z-score) ([8]; Conc 20 μM): −6.675

CC(=O)OCC(=O)[C@@]1(O)CCC2C3CC[C@@H]4C[C@H](OC(C)=O)CC[C@]4(C)C3C(=O)C[C@@]21C (stereo partly shown) [tetrahydrocortisone-3,21-diacetate]
ΔΨm [1, 9]: 0.074
ROS [2, 9]: 0.456
GE-HTS [3, 9]: −0.320
nucOX [4, 9]: −0.558
mitoOX [5, 9]: 0.269
cyt c [6, 9]: −0.397
Viability [7, 9]: −0.030
MTT [8, 9]: −0.664

CC(C)=CCCC1(C)C=Cc2c(O)c3c(c(CC=C(C)C)c2O1)OC12C(CC4CC1C(C)(C)OC2(C/C=C(/C)C(=O)O)C4O)C3=O (stereo not shown) [tetrahydrogambogic acid]
ΔΨm [1, 12]: −1.438
ROS [2, 12]: 0.460
GE-HTS [3, 12]: −0.478
nucOX [4, 12]: −0.409
mitoOX [5, 12]: −0.490
cyt c [6, 12]: −0.932
Viability [7, 12]: 1.434
MTT [8, 12]: −1.090

O=C1C(O)=C(O)C(=O)C(O)=C1O [tetroquinone]
ΔΨm [1, 13]: −0.424
ROS [2, 13]: 0.638
GE-HTS [3, 13]: 0.067
nucOX [4, 13]: 0.028
mitoOX [5, 13]: 0.112
cyt c [6, 13]: 0.386
Viability [7, 13]: 0.088
MTT [8, 13]: −0.574
